This is an account of results in ChEMBL document CHEMBL1124876, “Organic phosphorus compounds. 5. (4-Benzothiazol-2-ylbenzyl)amidophosphonate as potent calcium antagonistic vasodilators” (J Med Chem, 1990).

The test system of series [1] is Canis familiaris. Nature of the series: Coronary vasodilatory activity as increase in coronary flow was determined in dogs after 0.1 mg/kg i.v. administration of the compound; (SE +/- 3.3). It counts as functional, Canis lupus familiaris. To be noted: route intravenous.
The test system of series [2] is Canis familiaris. Nature of the series: Coronary vasodilatory activity as increase in coronary blood flow was determined in dogs after i.v. administration of the compound. It counts as functional, Canis lupus familiaris, Artery.
Series [3] deals with Canis familiaris. In words: Ability to increase coronary blood flow after intra duodenal administration at 3 mg/kg in dog; (SE +/- 24). The class given is functional, Canis lupus familiaris. To be noted: route intraduodenal.
The species named for series [4] is Cavia porcellus. Nature of the series: Calcium antagonistic activity in isolated guinea pig Tenia coli specimens; (SE +/- 0.10). The class given is functional. To be noted: read-out: pA2 (converted).
A short description of series [5]: Lethal effect after per os administration in mouse for 7 days. To be noted: in vivo, po. It counts as toxicity.
The nature of series [6]: Partition coefficient (logP). To be noted: octanol/water. It counts as physicochemical.
For series [7], the system named is Canis familiaris. Nature of the series: Coronary vasodilatory activity as increase in coronary flow was determined in dogs after 0.1 mg/kg i.v. administration of the compound; (SE +/- 9). The class given is functional, Canis lupus familiaris. To be noted: route intravenous.
Series [8] has as its system Canis familiaris. In words: Coronary vasodilatory activity as increase in coronary flow was determined in dogs after 0.1 mg/kg i.v. administration of the compound. It counts as functional, Canis lupus familiaris. To be noted: route intravenous.
Series [9] has as its system Canis familiaris. In words: Ability to increase coronary blood flow after intra duodenal administration at 3 mg/kg in dog; (SE +/- 38). The class given is functional, Canis lupus familiaris. To be noted: route intraduodenal.
Series [10] concerns Canis familiaris. In words: Coronary vasodilatory activity as increase in coronary flow was determined in dogs after 0.1 mg/kg i.v. administration of the compound; (SE +/- 0.1). It counts as functional, Canis lupus familiaris. To be noted: route intravenous.
For series [11], the system named is Canis familiaris. In words: Coronary vasodilatory activity as increase in coronary flow was determined in dogs after 0.1 mg/kg i.v. administration of the compound; (SE +/- 8.2). To be noted: route intravenous. It counts as functional, Canis lupus familiaris.
Series [12] deals with Canis familiaris. Nature of the series: Coronary vasodilatory activity as increase in coronary flow was determined in dogs after 0.1 mg/kg i.v. administration of the compound; (SE +/- 13.1). It counts as functional, Canis lupus familiaris. To be noted: route intravenous.
The species named for series [13] is Cavia porcellus. Nature of the series: Calcium antagonistic activity in isolated guinea pig Tenia coli specimens; (SE +/- 0.13). It counts as functional. To be noted: read-out: pA2 (converted).
Series [14] concerns Canis familiaris. In words: Coronary vasodilatory activity as increase in coronary flow was determined in dogs after 0.1 mg/kg i.v. administration of the compound; (SE +/- 22.2). It counts as functional, Canis lupus familiaris. To be noted: route intravenous.
The test system of series [15] is Canis familiaris. In words: Coronary vasodilatory activity as increase in coronary flow was determined in dogs after 0.1 mg/kg i.v. administration of the compound; (SE +/- 9.9). The class given is functional, Canis lupus familiaris. To be noted: route intravenous.
The test system of series [16] is Canis familiaris. Nature of the series: Coronary vasodilatory activity as increase in coronary flow was determined in dogs after 0.1 mg/kg i.v. administration of the compound; (SE +/- 27). It counts as functional, Canis lupus familiaris. To be noted: route intravenous.
In series [17] the test system is Canis familiaris. Nature of the series: Ability to increase coronary blood flow after intra duodenal administration at 3 mg/kg in dog; (SE +/- 23). It counts as functional, Canis lupus familiaris, Blood/Heart. To be noted: route intraduodenal.
The species named for series [18] is Cavia porcellus. In words: Calcium antagonistic activity in isolated guinea pig Tenia coli specimens; (SE +/- 0.06). The class given is functional. To be noted: read-out: pA2 (converted).
Series [19] relates to Canis familiaris. In words: Coronary vasodilatory activity as increase in coronary flow was determined in dogs after 0.1 mg/kg i.v. administration of the compound; (SE +/- 6.6). To be noted: route intravenous. The class given is functional, Canis lupus familiaris.
In series [20] the test system is Canis familiaris. Nature of the series: Coronary vasodilatory activity as increase in coronary flow was determined in dogs after 0.1 mg/kg i.v. administration of the compound; (SE +/- 12.9). The class given is functional, Canis lupus familiaris. To be noted: route intravenous.
Series [21] concerns Canis familiaris. In words: Coronary vasodilatory activity as increase in coronary flow was determined in dogs after 0.1 mg/kg i.v. administration of the compound; (SE +/- 7.4). The class given is functional, Canis lupus familiaris. To be noted: route intravenous.
The subject of series [22] is Canis familiaris. In words: Coronary vasodilatory activity as increase in coronary flow was determined in dogs after 0.1 mg/kg i.v. administration of the compound; IA = Inactive. The class given is functional, organism-based. Also on record: dose 0.1 mg/kg. To be noted: Canis lupus familiaris; at 0.1 mg/kg.
Series [23] has as its system Canis familiaris. In words: Ability to increase coronary blood flow after intra duodenal administration at 3 mg/kg in dog; (SE +/- 27). The class given is functional, Canis lupus familiaris. To be noted: route intraduodenal.
For series [24], the system named is Canis familiaris. In words: Coronary vasodilatory activity as increase in coronary flow was determined in dogs after 0.1 mg/kg i.v. administration of the compound; (SE +/- 5). It counts as functional, Canis lupus familiaris. To be noted: route intravenous.
For series [25], the species on record is Cavia porcellus. Nature of the series: Calcium antagonistic activity in isolated guinea pig Tenia coli specimens; (SE +/- 0.08). The class given is functional. To be noted: read-out: pA2 (converted).
For series [26], the species on record is Cavia porcellus. In words: Calcium antagonistic activity in isolated guinea pig Tenia coli specimens; (SE +/- 0.11). It counts as functional. To be noted: read-out: pA2 (converted).
Series [27] relates to Canis familiaris. In words: Ability to increase coronary blood flow after intra duodenal administration at 3 mg/kg in dog; (SE +/- 21). To be noted: route intraduodenal. It counts as functional, Canis lupus familiaris.

Activity calls are given as the source filed them. No cut-off for these calls is given here.

The LD50 is the dose expected to kill half of the subjects tested. A word on the logP: it is a log measure of how a compound divides between an organic and an aqueous phase. Lower therefore signals lower lipophilicity.

In the series with Canis familiaris [1], `CCOP(=O)(Cc1ccc(-c2nc3ccccc3s2)cc1)N1CCN(Cc2ccc(OC)c(OC)c2OC)CC1.O=C(O)/C=C/C(=O)O` (stereo not drawn) came in with a Max increase of 103.5%.
In the series with Canis familiaris [2], `CCOP(=O)(Cc1ccc(-c2nc3ccccc3s2)cc1)N1CCCC1=O` (stereo not drawn) had a CBF-ID75 of 0.0414 mg/kg. Besides, the “Change in blood flow” value in the series with Canis familiaris [3] turned out to be 104%. For the same molecule, the Kb in the series filed under Cavia porcellus [4] was 0.0295 µM. In addition, in series [5], the LD50 at 168 h stood at 2110 mg/kg. For the same molecule, the logP in series [6] is 3. This molecule also came in with a Max increase with Canis familiaris [7] of 124.1%.
As for `CCOP(=O)(Cc1ccc(-c2nc3ccccc3s2)cc1)OC` (stereo not drawn), the logP in series [6] was found to be 3.5.
`CCOP(=O)(Cc1ccc(-c2nc3ccccc3s2)cc1)N1CCOCC1` (stereo not drawn) came in with a Max increase in the series on Canis familiaris [8] of 69%.
With `CCOP(=O)(Cc1ccc(-c2nc3ccccc3s2)cc1)N1CCCCCC1=O` (stereo not drawn), the “Change in blood flow” value in the series on Canis familiaris [9] was 69%. Besides, in the series on Canis familiaris [2], the CBF-ID75 worked out at 0.055 mg/kg. In the series filed under Cavia porcellus [4], the Kb is 0.0347 µM. This molecule came in with an LD50 at 168 h in series [5] greater than 1000 mg/kg. In the series with Canis familiaris [7], this molecule registered a Max increase of 102.8%.
For `CCOP(=O)(Cc1ccc(-c2nc3ccccc3s2)cc1)N(CC)CC` (stereo not drawn), the Max increase in the series on Canis familiaris [10] worked out at 79.7%.
In turn, `CCOP(=O)(Cc1ccc(-c2nc3ccccc3s2)cc1)NC(C)C` (stereo not drawn) yielded a Max increase in the series with Canis familiaris [8] of 73.2%.
`CCOP(=O)(Cc1ccc(-c2nc3ccccc3s2)cc1)N1CCCCC1` (stereo not drawn) displayed a Max increase in the series on Canis familiaris [11] of 81.3%.
Regarding `CCOP(=O)(Cc1ccc(-c2nc3ccccc3s2)cc1)N1CCCCCC1` (stereo not drawn), the Max increase with Canis familiaris [8] stood at 49.3%.
`CCOP(=O)(Cc1ccc(-c2nc3ccccc3s2)cc1)N1CCCC1` (stereo not drawn): the Max increase in the series on Canis familiaris [12] was 101.1%.
For the molecule `CCOP(=O)(Cc1ccc(-c2nc3ccccc3s2)cc1)N1CC=CC1` (stereo not drawn), the Max increase with Canis familiaris [8] is given as 80.6%.
With `CCOP(=O)(Cc1ccc(-c2nc3ccccc3s2)cc1)N1CCOC1=O` (stereo not drawn), the Kb in the series filed under Cavia porcellus [13] is 0.0257 µM. The molecule also yielded a CBF-ID75 in the series on Canis familiaris [2] of 0.0773 mg/kg. Besides, the Max increase with Canis familiaris [14] is 141.4%. The molecule further had an LD50 at 168 h in series [5] of 671 mg/kg.
Molecule `CCOP(=O)(Cc1ccc(-c2nc3ccccc3s2)cc1)N1CCCCCCC1=O` (stereo not drawn) registered a Max increase with Canis familiaris [15] of 70.7%.
The molecule `CCOP(=O)(Cc1ccc(-c2nc3ccccc3s2)cc1)N1CCSC1=O` (stereo not drawn) yielded a CBF-ID75 in the series with Canis familiaris [2] of 0.0504 mg/kg. In the series on Canis familiaris [16], this molecule had a Max increase of 155.3%. Further, in series [5], the LD50 at 168 h was greater than 1000 mg/kg.
The molecule `CCOC(=O)Cc1ccc(-c2nc3ccccc3s2)cc1` registered a log partition coefficient (logP) in series [6] of 3.2.
`COc1ccc([C@@H]2Sc3ccccc3N(CCN(C)C)C(=O)[C@@H]2OC(C)=O)cc1.Cl` [DILTIAZEM HYDROCHLORIDE]: the CBF-ID75 with Canis familiaris [2] was determined as 0.0771 mg/kg. The “Change in blood flow” value in the series on Canis familiaris [17] is 52%. Further, the Kb in the series listed under Cavia porcellus [18] is 0.0501 µM. In [5], this molecule showed an LD50 at 168 h of 508 mg/kg.
In turn, `CCOP(=O)(Cc1ccc(-c2nc3ccccc3s2)cc1)N1CCCCC1=S` (stereo not drawn) yielded a Max increase in the series with Canis familiaris [19] of 24.7%.
The molecule `CCOP(=O)(Cc1ccc(-c2nc3ccccc3s2)cc1)N1CCN(CC)C(=O)C1=O` (stereo not drawn) displayed a Max increase in the series with Canis familiaris [20] of 51.8%.
As for `CCOP(=O)(Cc1ccc(-c2nc3ccccc3s2)cc1)N1CCN(C)CC1` (stereo not drawn), in the series on Canis familiaris [8], the Max increase is recorded as 49.3%.
For the molecule `CCOP(=O)(Cc1ccc(-c2nc3ccccc3s2)cc1)N1CCCC1=S` (stereo not drawn), the Max increase with Canis familiaris [21] stood at 64.9%.
As for `CCOP(=O)(Cc1ccc(-c2nc3ccccc3s2)cc1)NCc1ccccc1` (stereo not drawn), in the series with Canis familiaris [22], the Max increase entry is “inactive”.
`CCOP(=O)(Cc1ccc(-c2nc3ccccc3s2)cc1)NCCCl` (stereo not drawn) returned a Max increase with Canis familiaris [8] of 31.2%.
In the case of `CCNP(=O)(Cc1ccc(-c2nc3ccccc3s2)cc1)OCC` (stereo not drawn), the Max increase in the series on Canis familiaris [8] was 31.2%.
With `CCOP(=O)(Cc1ccc(-c2nc3ccccc3s2)cc1)OCC` [FOSTEDIL], the “Change in blood flow” value with Canis familiaris [23] is 92%. In the series on Canis familiaris [2], this molecule showed a CBF-ID75 of 0.116 mg/kg. In addition, the Max increase in the series on Canis familiaris [24] was found to be 82.2%. This molecule also gave an LD50 at 168 h in series [5] of 1190 mg/kg. Besides, the Kb in the series listed under Cavia porcellus [25] was 0.0617 µM.
In the series with Canis familiaris [8], `CCOP(=O)(Cc1ccc(-c2nc3ccccc3s2)cc1)NC1CC1` (stereo not drawn) displayed a Max increase of 41.1%.
As for `Cc1ccc(-c2nc3ccccc3s2)cc1`, in series [6], the lipophilicity (logP) turned out to be 3.7.
On to `CCOP(=O)(Cc1ccc(-c2nc3ccccc3s2)cc1)N1CCSC1=S` (stereo not drawn), for which, in the series with Canis familiaris [21], the Max increase amounted to 51.8%.
`CCOP(=O)(Cc1ccc(-c2nc3ccccc3s2)cc1)N1CCCCC1=O` (stereo not drawn) came in with a CBF-ID75 in the series with Canis familiaris [2] of 0.0552 mg/kg. This molecule also registered a Max increase with Canis familiaris [21] of 101.9%. Besides, in the series listed under Cavia porcellus [26], the Kb was 0.0355 µM. Also, in the series with Canis familiaris [27], the “Change in blood flow” value was 40%. In [5], this molecule gave an LD50 at 168 h greater than 1000 mg/kg.
